# Where two headings read alike, the source gives them in different places.
# What was measured:
# gel-filtered platelets = assay: In vitro inhibition of thrombin-induced gel-filtered platelet aggregation; type: cell-based; conditions: human gel-filtered platelets, agonist thrombin 50 μL of 1 unit/mL, read-out: Thrmb IC50 (Thrombin-induced aggregation of gel-filtered platelets)
# Outline: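 Gel-filtered (Sepharose 2B) human platelets from citrated PRP, 2×10^7 per sample, in Tyrode's buffer pH 7.4 with BSA and added calcium, preincubated with test compound. Aggregation induced by thrombin (50 μL of 1 unit/mL) and followed as light transmission over 3 min. Inhibition is taken relative to control-treated platelets.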
# [1] = biological target: T1, thrombin receptor (PAR-1) (Homo sapiens, UniProt P25116); assay: In vitro thrombin receptor binding assay (CHRF membranes); conditions: tritiated 721-40 radioligand, read-out: Bndg IC50 (Thrombin receptor binding)
# T1 construct: CHRF membranes (Jones, Biochim. Biophys. Acta 1992, 1136, 272) are thawed from −70° C; endogenous in cells; host or cells: CHRF cell membranes
# T1 sequence (P25116 22-425): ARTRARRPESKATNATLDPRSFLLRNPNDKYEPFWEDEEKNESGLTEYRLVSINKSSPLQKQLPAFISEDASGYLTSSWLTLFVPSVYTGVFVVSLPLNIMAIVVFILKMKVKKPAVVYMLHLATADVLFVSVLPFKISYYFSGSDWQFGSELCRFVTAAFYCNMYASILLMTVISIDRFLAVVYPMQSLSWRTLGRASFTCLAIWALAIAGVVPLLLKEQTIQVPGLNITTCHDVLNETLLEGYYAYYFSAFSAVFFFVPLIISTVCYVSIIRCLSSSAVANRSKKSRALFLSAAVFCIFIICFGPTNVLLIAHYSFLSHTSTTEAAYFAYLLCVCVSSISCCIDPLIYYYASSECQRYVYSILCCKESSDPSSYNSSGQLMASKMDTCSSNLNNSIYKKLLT
# Outline: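 CHRF cell membranes incubated 30 min with tritiated peptide agonist 721–40 and compound at 3.7 μg/mL final (0.6% DMSO) in HEPES/MgCl2/BSA buffer. Nonspecific binding defined with unlabeled 721–40; bound radioactivity counted after filtration onto PEI-treated filters.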
compound,measurement,setting,value
N#Cc1ccc(C[C@H](NC(=O)Nc2ccc3c(CN4CCCC4)cn(Cc4c(Cl)cccc4Cl)c3c2)C(=O)N[C@@H](CCCNC(=N)N)C(=O)NCc2ccccc2)cc1 [Compound 52],IC50,gel-filtered platelets; Platelet,480 nM
same,IC50,[1],5300 nM
CCN(CC)Cc1cn(CCc2ccc(F)cc2)c2cc(NC(=O)N[C@@H](Cc3ccc(F)c(F)c3)C(=O)N[C@@H](CCCNC(=N)N)C(=O)NCc3ccccc3)ccc12 [Compound 76],IC50,gel-filtered platelets; Platelet,1100 nM
same,IC50,[1],200 nM
Cc1ccccc1Cn1c(Cl)c(CN2CCCC2)c2ccc(NC(=O)N[C@@H](Cc3ccc(F)c(F)c3)C(=O)N[C@@H](CCCNC(=N)N)C(=O)NCc3ccccc3)cc21 [Compound 172],IC50,gel-filtered platelets; Platelet,> 10000 nM
same,IC50,[1],6800 nM
N=C(N)NCCC[C@H](NC(=O)[C@H](Cc1ccc(F)c(F)c1)NC(=O)Nc1ccc2c(CN3CCCC3)cn(Cc3ccccc3Cl)c2c1)C(=O)NCc1ccccc1 [Compound 55],IC50,gel-filtered platelets; Platelet,340 nM
same,IC50,[1],11300 nM
NCC[C@H](NC(=O)[C@H](Cc1cccs1)NC(=O)Nc1ccc2c(CN3CCCC3)cn(Cc3c(Cl)cccc3Cl)c2c1)C(=O)NCc1ccccc1 [Compound 131],IC50,gel-filtered platelets; Platelet,940 nM
same,IC50,[1],1900 nM
NCCNC(=O)[C@H](Cc1c[nH]cn1)NC(=O)[C@H](Cc1ccc(Cl)cc1)NC(=O)Nc1ccc2c(CN3CCCC3)cn(Cc3c(Cl)cccc3Cl)c2c1 [Compound 134],IC50,gel-filtered platelets; Platelet,950 nM
same,IC50,[1],1200 nM
N=C(N)NCCC[C@H](NC(=O)[C@@H](NC(=O)Nc1ccc2c(CN3CCCC3)cn(Cc3c(Cl)cccc3Cl)c2c1)C(c1ccccc1)c1ccccc1)C(=O)NCc1ccccc1 [Compound 56],IC50,gel-filtered platelets; Platelet,3800 nM
same,IC50,[1],11400 nM
COc1ccc(C[C@H](NC(=O)Nc2ccc3c(CN(C)CCCN(C)C)cn(Cc4ccc(F)cc4)c3c2)C(=O)N[C@@H](CCCNC(=N)N)C(=O)NCc2ccccc2)cc1 [Compound 32],IC50,gel-filtered platelets; Platelet,48600 nM
same,IC50,[1],7300 nM
NCC[C@H](NC(=O)[C@H](Cc1ccc(F)c(F)c1)NC(=O)Nc1ccc2c(c1)c(CN1CCCC1)cn2Cc1ccc(F)cc1)C(=O)NCc1ccccc1 [Compound 164],IC50,gel-filtered platelets; Platelet,13600 nM
same,IC50,[1],11800 nM
C=CCN(C)Cc1cn(Cc2c(Cl)cccc2Cl)c2cc(NC(=O)N[C@@H](Cc3cccc(F)c3)C(=O)N[C@@H](CCCN)C(=O)NC3Cc4ccccc4C3)ccc12 [Compound 97],IC50,gel-filtered platelets; Platelet,18800 nM
same,IC50,[1],1700 nM
CC(=N)NCCNC(=O)[C@H](CCNC(C)=N)NC(=O)[C@H](Cc1ccc(F)c(F)c1)NC(=O)Nc1ccc2c(CN3CCCC3)cn(Cc3c(Cl)cccc3Cl)c2c1 [Compound 140],IC50,gel-filtered platelets; Platelet,740 nM
same,IC50,[1],120 nM
NCCC[C@H](NC(=O)[C@H](Cc1ccc(F)c(F)c1)NC(=O)Nc1ccc2c(CN3CCCC3)cn(Cc3c(Cl)cccc3Cl)c2c1)C(=O)NC1CCCC1 [Compound 125],IC50,gel-filtered platelets; Platelet,430 nM
same,IC50,[1],660 nM
COc1ccc(C[C@H](NC(=O)Nc2ccc3c(CNC4CC4)cn(Cc4ccc(F)cc4)c3c2)C(=O)N[C@@H](CCCNC(=N)N)C(=O)NCc2ccccc2)cc1 [Compound 45],IC50,gel-filtered platelets; Platelet,> 10000 nM
same,IC50,[1],13900 nM
"N=C(N)NCCC[C@H](NC(=O)[C@H](Cc1ccc(F)c(F)c1)NC(=O)Nc1ccc2c(CN3CCCC3)cn(Cc3c(Cl)cccc3Cl)c2c1)C(=O)NCc1ccccc1 [Compound 46, L-Argininamide, 3,4-difluoro-N-[[[1-[(2,6-dichlorophenyl)methyl]-3-(1-pyrrolidinylmethyl)-1H-indol-6-yl]amino]carbonyl]-L-phenylalanyl-N-(phenylmethyl)-]",IC50,gel-filtered platelets,280 nM
same,IC50,[1],470 nM
N=C(N)NCCC[C@H](NC(=O)[C@H](Cc1ccc(F)c(F)c1)NC(=O)Nc1ccc2c(CN3CCCC3)cn(Cc3ccc(F)cc3)c2c1)C(=O)NC(c1ccccc1)c1ccccc1 [Compound 60],IC50,gel-filtered platelets; Platelet,930 nM
same,IC50,[1],2800 nM
NCCNC(=O)[C@H](Cc1cscn1)NC(=O)[C@H](Cc1ccc(Cl)cc1)NC(=O)Nc1ccc2c(CN3CCCC3)cn(Cc3c(Cl)cccc3Cl)c2c1 [Compound 137],IC50,gel-filtered platelets; Platelet,940 nM
same,IC50,[1],810 nM
NCCCC[C@H](NC(=O)[C@H](Cc1ccc(F)c(F)c1)NC(=O)Nc1ccc2c(CN3CCCC3)cn(Cc3c(Cl)cccc3Cl)c2c1)C(=O)NCc1ccccc1 [Compound 70],IC50,gel-filtered platelets; Platelet,310 nM
same,IC50,[1],320 nM
CCN(CC)Cc1cn(Cc2cccc(C)c2)c2cc(NC(=O)N[C@@H](Cc3ccc(OC(C)C)cc3)C(=O)N[C@@H](CCCNC(=N)N)C(=O)NCc3ccccc3)ccc12 [Compound 43],IC50,gel-filtered platelets; Platelet,33500 nM
same,IC50,[1],5000 nM
CCCCCCCCNC(=O)[C@H](CCCNC(=N)N)NC(=O)[C@H](Cc1ccc(F)c(F)c1)NC(=O)Nc1ccc2c(CN3CCCCC3)cn(Cc3ccc(F)cc3)c2c1 [Compound 73],IC50,gel-filtered platelets; Platelet,2400 nM
same,IC50,[1],7500 nM
COc1ccc(C[C@H](NC(=O)Nc2ccc3c(CN4CCCC4)cn(Cc4ccc(C#N)cc4)c3c2)C(=O)N[C@@H](CCCNC(=N)N)C(=O)NCc2ccccc2)cc1 [Compound 13],IC50,gel-filtered platelets; Platelet,16200 nM
same,IC50,[1],4500 nM
NCCNC(=O)[C@H](Cc1cccc(F)c1)NC(=O)[C@H](Cc1ccc(F)c(F)c1)NC(=O)Nc1ccc2c(CN3CCCC3)cn(Cc3c(Cl)cccc3Cl)c2c1 [Compound 138],IC50,gel-filtered platelets; Platelet,330 nM
same,IC50,[1],2000 nM
NCCC[C@H](NC(=O)[C@H](Cc1ccc(F)c(F)c1)NC(=O)Nc1ccc2c(CN3CCCC3)cn(Cc3c(Cl)cccc3Cl)c2c1)C(=O)N1CCCCC1 [Compound 115],IC50,gel-filtered platelets; Platelet,2700 nM
same,IC50,[1],370 nM
COC[C@H]1CCCN1Cc1cn(Cc2cc(Cl)nc(Cl)c2)c2cc(NC(=O)N[C@@H](Cc3cccc(F)c3)C(=O)N[C@@H](CCCNC(=N)N)C(=O)NCc3ccccc3)ccc12 [Compound 91],IC50,gel-filtered platelets; Platelet,22400 nM
same,IC50,[1],4000 nM
NCCNC(=O)[C@@H](Cc1cccs1)NC(=O)[C@@H](Cc1ccc(Cl)cc1)NC(=O)c1ccc2c(CN3CCCC3)cn(Cc3c(Cl)cccc3Cl)c2c1 [Compound 178],IC50,gel-filtered platelets; Platelet,40700 nM
same,IC50,[1],9900 nM
Cc1ccccc1Cn1cc(CN2CCCC2)c2ccc(NC(=O)N[C@@H](Cc3cccc4ccccc34)C(=O)N[C@@H](CCCNC(=N)N)C(=O)NCc3ccccc3)cc21 [Compound 37],IC50,gel-filtered platelets; Platelet,4400 nM
same,IC50,[1],20300 nM
NCCNC(=O)[C@H](Cc1cccs1)NC(=O)[C@H](Cc1ccc(Cl)cc1)NC(=O)Nc1ccc2c(CN3CCCC3)cn(Cc3c(Cl)cccc3Cl)c2c1 [Compound 136],IC50,gel-filtered platelets; Platelet,550 nM
same,IC50,[1],1100 nM
N=C(N)NCCC[C@H](NC(=O)[C@H](Cc1ccc2ccccc2c1)NC(=O)Nc1ccc2c(CN3CCCC3)cn(Cc3c(Cl)cccc3Cl)c2c1)C(=O)NCc1ccccc1 [Compound 38],IC50,gel-filtered platelets; Platelet,2500 nM
same,IC50,[1],33500 nM
"N=C(N)NCCC[C@H](NC(=O)[C@H](Cc1ccc(F)c(F)c1)NC(=O)Nc1ccc2c(CN3CCCC3)c(-c3ccccc3)n(Cc3ccc(F)cc3)c2c1)C(=O)NCc1ccc(F)cc1 [Compound 171, L-Argininamide, 3,4-difluoro-N-[[[1-[(4-fluorophenyl)methyl]-2-phenyl-3-(1-pyrrolidinylmethyl)-1H-indol-6-yl]amino]carbonyl]-L-phenylalanyl-N-[(4-fluorophenyl)methyl]-]",IC50,gel-filtered platelets; Platelet,1000 nM
same,IC50,[1],100 nM
COC[C@H]1CCCN1Cc1cn(Cc2c(Cl)cccc2Cl)c2cc(NC(=O)N[C@@H](Cc3ccc(Cl)cc3)C(=O)N[C@@H](CCCNC(=N)N)C(=O)NCc3ccccc3)ccc12 [Compound 87],IC50,gel-filtered platelets; Platelet,1300 nM
same,IC50,[1],280 nM
NC[C@H](NC(=O)[C@H](Cc1ccc(F)c(F)c1)NC(=O)Nc1ccc2c(CN3CCCC3)cn(Cc3c(Cl)cccc3Cl)c2c1)C(=O)NCc1ccccc1 [Compound 101],IC50,gel-filtered platelets; Platelet,410 nM
same,IC50,[1],920 nM
NCC[C@H](NC(=O)[C@H](Cc1ccc(F)c(F)c1)NC(=O)Nc1ccc2c(CN3CCCC3)cn(Cc3c(Cl)cccc3Cl)c2c1)C(=O)NCc1ccc([N+](=O)[O-])cc1 [Compound 158],IC50,gel-filtered platelets,740 nM
same,IC50,[1],1800 nM
COc1ccccc1CCNC(=O)[C@H](CCCNC(=N)N)NC(=O)[C@H](Cc1ccc(F)c(F)c1)NC(=O)Nc1ccc2c(CN3CCCC3)cn(Cc3ccccc3C)c2c1 [Compound 65],IC50,gel-filtered platelets; Platelet,1000 nM
same,IC50,[1],220 nM
COc1ccc(C[C@H](NC(=O)Nc2ccc3c(CN4CCCC4)cn(Cc4ccc(OC(F)(F)F)cc4)c3c2)C(=O)N[C@@H](CCCNC(=N)N)C(=O)NCC2CCCCC2)cc1 [Compound 11],IC50,gel-filtered platelets,19900 nM
same,IC50,[1],2500 nM
NCCC[C@H](NC(=O)[C@H](Cc1ccc(F)c(F)c1)NC(=O)Nc1ccc2c(CN3CCCC3)cn(Cc3c(Cl)cccc3Cl)c2c1)C(=O)NCc1cccnc1 [Compound 116],IC50,gel-filtered platelets; Platelet,1100 nM
same,IC50,[1],410 nM
CCOC(=O)N1CCC(NC(=O)[C@H](CCN)NC(=O)[C@H](Cc2ccc(F)c(F)c2)NC(=O)Nc2ccc3c(CN4CCCC4)cn(Cc4c(Cl)cccc4Cl)c3c2)CC1 [Compound 144],IC50,gel-filtered platelets; Platelet,320 nM
same,IC50,[1],70 nM
CC(=N)NCCC[C@H](NC(=O)[C@H](Cc1ccc(F)c(F)c1)NC(=O)Nc1ccc2c(CN3CCCC3)cn(Cc3c(Cl)cccc3Cl)c2c1)C(=O)NCc1ccccc1 [Compound 95],IC50,gel-filtered platelets; Platelet,410 nM
same,IC50,[1],370 nM
